ChEMBL document CHEMBL5726383, “Heteroaryls and uses thereof” (2017)

Molecular target: Phosphatidylinositol 3-kinase catalytic subunit type 3 (Homo sapiens, UniProt Q8NEB9)
Experiment: VPS34 Enzyme Assays: 100 nL compounds in DMSO are added to wells of a 384 well microtitre plate (Greiner 780076). At room temperature: 5 ul VPS34 reaction buffer (Invitrogen Assay Buffer Q (diluted 1 in 5 with nanopure water) plus 2 mM DTT and 2 mM MnCl2) containing ATP (20 uM, Promega) and 200 uM PI-PS substrate (Invitrogen PV5122) is added followed immediately by 5 ul VPS34 reaction buffer (as above) containing VPS34 (5 nM, Millennium Protein Sciences Group) and the mixture is incubated with shaking at room temperature for 1 hour. Then 5 ul VPS34 stop-detect mix (as per Invitrogen Adapta Assay kit (PV5009) instructions (contains kinase quench buffer, TR-FRET buffer, Adapta Eu anti-ADP antibody and Alexa Fluor 647 ADP tracer)) is added to quench the reaction. The plates are then incubated for 30 minutes at room temperature with shaking and then read on a BMG PheraStar Plus reader.

Sequence of Phosphatidylinositol 3-kinase catalytic subunit type 3 (Q8NEB9 whole entry): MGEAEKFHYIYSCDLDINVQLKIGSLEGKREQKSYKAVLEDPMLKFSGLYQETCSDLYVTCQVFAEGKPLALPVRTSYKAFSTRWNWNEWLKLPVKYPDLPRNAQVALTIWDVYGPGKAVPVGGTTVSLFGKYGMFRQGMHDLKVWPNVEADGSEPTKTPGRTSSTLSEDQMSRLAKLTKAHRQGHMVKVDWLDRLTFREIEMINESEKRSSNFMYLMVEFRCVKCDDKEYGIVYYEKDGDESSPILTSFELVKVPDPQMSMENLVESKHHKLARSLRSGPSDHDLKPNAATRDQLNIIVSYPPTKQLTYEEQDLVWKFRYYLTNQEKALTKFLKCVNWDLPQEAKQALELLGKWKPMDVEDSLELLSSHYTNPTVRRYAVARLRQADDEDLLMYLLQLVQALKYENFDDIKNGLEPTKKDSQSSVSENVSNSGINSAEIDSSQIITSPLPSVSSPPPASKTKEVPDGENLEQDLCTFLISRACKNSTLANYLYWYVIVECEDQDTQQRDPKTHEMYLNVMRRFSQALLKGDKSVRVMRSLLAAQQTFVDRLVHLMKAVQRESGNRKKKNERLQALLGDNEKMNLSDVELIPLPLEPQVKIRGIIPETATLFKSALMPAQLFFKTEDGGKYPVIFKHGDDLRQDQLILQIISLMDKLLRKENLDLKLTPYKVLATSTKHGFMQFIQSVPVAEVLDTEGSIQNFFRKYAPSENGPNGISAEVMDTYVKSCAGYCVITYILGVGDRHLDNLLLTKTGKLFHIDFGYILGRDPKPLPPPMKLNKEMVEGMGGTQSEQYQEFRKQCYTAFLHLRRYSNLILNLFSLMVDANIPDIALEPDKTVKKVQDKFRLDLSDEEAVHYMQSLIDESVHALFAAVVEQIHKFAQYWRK

IC50: < 10 nM
SMILES: CC(=O)Nc1cc(-c2cnc(C)c(NS(=O)(=O)c3ccc(C)cc3Cl)c2)ccn1
